Laboratory results published in patent publication US9975888B2, “Aryl linked imidazole and triazole derivatives and methods of use thereof for improving the pharmacokinetics of a drug” (MERCK SHARP & DOHME CORP., priority 2013, dated 2018).

Columns and labels:
Format in all cases: biochemical
[1] = biological target: T1, CYP1A2 (Homo sapiens, UniProt P05177); assay: Cocktail assay for CYPs, phenacetin O-deethylation (CYP1A2), human liver microsomes; details: 10 μM phenacetin, 0.1 mg/mL human liver microsomes, 10 min at 37° C.; read-out: CYP IC50 (nM) 1A2
T1 construct: 0.1 mg/mL protein human liver microsomes (BD Gentest); tissue BD Gentest; host or cells: human liver microsomes
T1 sequence (P05177 1-516): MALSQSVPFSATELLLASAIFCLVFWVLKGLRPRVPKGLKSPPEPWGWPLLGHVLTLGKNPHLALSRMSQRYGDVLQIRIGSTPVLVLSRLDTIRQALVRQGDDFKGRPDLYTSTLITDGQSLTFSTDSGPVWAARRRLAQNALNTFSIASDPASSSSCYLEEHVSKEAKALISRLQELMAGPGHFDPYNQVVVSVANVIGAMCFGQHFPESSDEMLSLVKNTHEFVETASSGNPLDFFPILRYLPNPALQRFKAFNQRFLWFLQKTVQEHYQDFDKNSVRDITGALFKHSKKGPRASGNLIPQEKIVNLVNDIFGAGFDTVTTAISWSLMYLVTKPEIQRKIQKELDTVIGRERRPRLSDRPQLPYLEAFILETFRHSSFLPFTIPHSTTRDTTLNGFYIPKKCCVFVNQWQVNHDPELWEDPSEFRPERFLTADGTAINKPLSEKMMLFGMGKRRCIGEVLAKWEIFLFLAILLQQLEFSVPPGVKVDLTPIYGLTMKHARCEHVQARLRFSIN
Description: (§1) Determination of IC50 in a Cocktail Assay for CYPs 1A2, 2C9, 2C19, 2D6 and 3A4:
(§2) This assay was performed in a standard 96-well plate design. IC50 values were calculated from the percent inhibition observed for each test compound at 6 concentrations (for example, 0.0032, 0.016, 0.08, 0.4, 2 and 10 μM). The incubation substrate mix contains 10 μM phenacetin (1A2), 5 μM diclofenac (2C9), 30 μM mephenytoin (2C19), 5 μM dextromethorphan (2D6) and 2 μM midazolam (3A4), 0.1 mg/mL protein human liver microsomes (BD Gentest), 1 mM NAPDH, 3.3 mM MgCl2 and 100 mM potassium phosphate buffer (pH 7.4). The production of the metabolite of each probe substrate was determined after incubation for 10 min at 37° C. Quantitation of the metabolite peak area ratio against an internal standard (tolbutamide) was determined by LC/MS/MS analysis following acetonitrile treatment of the incubations.
(§3) Samples were analyzed in the MRM mode with a SCIEX API-4000 mass spectrometer (Applied Biosystems, Foster City, Calif.), with a Shimadzu LC-20 AD pump (Shimadzu corporation, Kyoto, JP) and a CTC PAL autosampler (Agilent Technologies, Switzerland). A Phenomenex, Luna, 5 nm, 100 A, 2.00×30 mm HPLC column was used for the separation. The mobile phases were: (A) 0.1% formic acid in water and (B) 0.1% formic acid in acetonitrile. The binary gradient was as follows.
(§4) The peak area ratio of the analyte to the internal standard was used to quantify the metabolite. The values of peak area ratios in the presence of test compound were compared to those of maximum or minimum controls and were expressed as % inhibition by interpolating between the maximum and minimum peak area ratios. Incubations with no inhibitor were defined as the maxima. The following equation was used to calculate the % inhibition: [1−[(X−Low control)/(High control−Low control)]]*100 For the IC50 calculation, SigmaPlot was used to plot the mean % inhibition versus the test compound concentrations and for non-linear regression analysis of the data. Depending on the range of data points defining the inhibition curve, the data may have been fit to the 4-parameter logistic equation.

[2] = biological target: T2, CYP2C9 (Homo sapiens, UniProt P11712); assay: Cocktail assay for CYPs, diclofenac 4′-hydroxylation (CYP2C9), human liver microsomes; details: 5 μM diclofenac, 0.1 mg/mL human liver microsomes, 10 min at 37° C.; read-out: CYP IC50 (nM) 2C9
T2 construct: 0.1 mg/mL protein human liver microsomes (BD Gentest); tissue BD Gentest; host or cells: human liver microsomes
Description: as §1
as §2, with “IC50 values were calculated from the percent inhibition observed for each test compound at 6 concentrations (for example, 0.0032, 0.016, 0.08, 0.4, 2 and 10 μM).” left out
as §3, §4

[3] = biological target: T3, CYP2C19 (Homo sapiens, UniProt P33261); assay: Cocktail assay for CYPs, mephenytoin 4′-hydroxylation (CYP2C19), human liver microsomes; details: 30 μM mephenytoin, 0.1 mg/mL human liver microsomes, 10 min at 37° C.; read-out: CYP IC50 (nM) 2C19
T3 construct: 0.1 mg/mL protein human liver microsomes (BD Gentest); tissue BD Gentest; host or cells: human liver microsomes
Description: as §1
as §2, with “IC50 values were calculated from the percent inhibition observed for each test compound at 6 concentrations (for example, 0.0032, 0.016, 0.08, 0.4, 2 and 10 μM).” left out
as §3, §4

[4] = biological target: T4, CYP2D6 (Homo sapiens, UniProt P10635); assay: Cocktail assay for CYPs, dextromethorphan O-demethylation (CYP2D6), human liver microsomes; details: 5 μM dextromethorphan, 0.1 mg/mL human liver microsomes, 10 min at 37° C.; read-out: CYP IC50 (nM) 2D6
T4 construct: 0.1 mg/mL protein human liver microsomes (BD Gentest); tissue BD Gentest; host or cells: human liver microsomes
Description: as §1, §2, §3, §4

[5] = biological target: T5, CYP3A4 (Homo sapiens, UniProt P08684); assay: Cocktail assay for CYPs, midazolam 1′-hydroxylation (CYP3A4), human liver microsomes; design: 0.1 mg/mL protein human liver microsomes (BD Gentest); tissue BD Gentest; host or cells: human liver microsomes; details: 2 μM midazolam, 0.1 mg/mL human liver microsomes, 10 min at 37° C.; read-out: CYP IC50 (nM) 3A4 (MDZ)
Description: as §1, §2, §3, §4
Target sequence in this assay (P08684 whole entry): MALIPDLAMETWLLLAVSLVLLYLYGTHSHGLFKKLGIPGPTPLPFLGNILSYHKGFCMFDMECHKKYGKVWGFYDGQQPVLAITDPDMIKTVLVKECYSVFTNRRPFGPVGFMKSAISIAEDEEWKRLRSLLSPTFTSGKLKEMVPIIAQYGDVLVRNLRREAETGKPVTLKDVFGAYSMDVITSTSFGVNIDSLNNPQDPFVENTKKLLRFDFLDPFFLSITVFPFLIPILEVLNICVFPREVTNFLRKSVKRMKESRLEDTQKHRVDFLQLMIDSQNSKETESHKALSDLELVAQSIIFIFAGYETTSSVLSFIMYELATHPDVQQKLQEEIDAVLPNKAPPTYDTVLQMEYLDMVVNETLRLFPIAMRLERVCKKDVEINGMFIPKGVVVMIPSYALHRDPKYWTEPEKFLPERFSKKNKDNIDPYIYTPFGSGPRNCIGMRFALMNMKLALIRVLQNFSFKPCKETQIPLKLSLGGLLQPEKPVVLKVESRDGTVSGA

[6] = biological target: T5, CYP3A4; assay: IC50 vs CYP3A by inhibition of lopinavir metabolism in human liver microsomes; design: 0.01 mg/mL protein human liver microsomes (BD Gentest); tissue BD Gentest; host or cells: human liver microsomes; details: 1.5 μM lopinavir, 0.01 mg/mL human liver microsomes, 8 min at 37° C.; read-out: CYP IC50 (nM) 3A4 (LPV)
Description: Determination of IC50 vs CYP3A by Measurement of Inhibition of Lopinavir Metabolism
This assay was performed in a standard 96-well plate design. IC50 values were calculated from the percent inhibition observed for each test compound at 6 concentrations (for example, 0.098, 0.391, 1.56, 6.25, 25 and 100 nM). The incubation substrate mix contains 1.5 μM lopinavir, 0.01 mg/mL protein human liver microsomes (BD Gentest), 1 mM NAPDH, 3.3 mM MgCl2 and 100 mM potassium phosphate buffer (pH 7.4). The production of the sum of three hydroxylated metabolites (M2: 6-hydroxy lopinavir, M3: 4-hydroxy lopinavir, M4: 4-hydroxy lopinavir (epimer of M3), Kumar et al., 1999) was determined after incubation for 8 min at 37° C. Quantitation of the metabolite peak area ratio against an internal standard (tolbutamide) was determined by LC/MS/MS analysis following acetonitrile treatment of the incubations.
as §3, with “μm,” for “nm,”
Target sequence in this assay (P08684 2-503): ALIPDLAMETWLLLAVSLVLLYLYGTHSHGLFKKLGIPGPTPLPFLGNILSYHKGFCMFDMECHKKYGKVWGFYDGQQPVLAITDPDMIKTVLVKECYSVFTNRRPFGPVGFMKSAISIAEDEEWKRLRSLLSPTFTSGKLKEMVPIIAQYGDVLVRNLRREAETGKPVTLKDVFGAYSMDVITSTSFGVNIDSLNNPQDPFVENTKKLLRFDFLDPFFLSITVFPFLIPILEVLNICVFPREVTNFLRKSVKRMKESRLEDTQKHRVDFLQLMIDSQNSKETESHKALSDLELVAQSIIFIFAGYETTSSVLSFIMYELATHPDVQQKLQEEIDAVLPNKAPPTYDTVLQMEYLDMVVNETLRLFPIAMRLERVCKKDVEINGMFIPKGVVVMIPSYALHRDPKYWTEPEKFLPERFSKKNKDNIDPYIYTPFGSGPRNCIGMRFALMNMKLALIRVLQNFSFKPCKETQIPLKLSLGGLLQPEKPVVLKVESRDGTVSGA
The peak area ratio of the analyte to the internal standard was used to quantify the metabolite. The values of peak area ratios in the presence of test compound were compared to those of maximum or minimum controls and were expressed as % inhibition by interpolating between the maximum and minimum peak area ratios. Incubations with no inhibitor were defined as the maxima and with 5 μM ketoconazole were defined as the minima.
The following equation was used to calculate the % inhibition: [1−[(X−Low control)/(High control−Low control)]]*100
For the IC50 calculation, SigmaPlot was used to plot the mean % inhibition versus the test compound concentrations and for non-linear regression analysis of the data. Depending on the range of data points defining the inhibition curve, the data may have been fit to the 4-parameter logistic equation.

T4 sequence (P10635 whole entry): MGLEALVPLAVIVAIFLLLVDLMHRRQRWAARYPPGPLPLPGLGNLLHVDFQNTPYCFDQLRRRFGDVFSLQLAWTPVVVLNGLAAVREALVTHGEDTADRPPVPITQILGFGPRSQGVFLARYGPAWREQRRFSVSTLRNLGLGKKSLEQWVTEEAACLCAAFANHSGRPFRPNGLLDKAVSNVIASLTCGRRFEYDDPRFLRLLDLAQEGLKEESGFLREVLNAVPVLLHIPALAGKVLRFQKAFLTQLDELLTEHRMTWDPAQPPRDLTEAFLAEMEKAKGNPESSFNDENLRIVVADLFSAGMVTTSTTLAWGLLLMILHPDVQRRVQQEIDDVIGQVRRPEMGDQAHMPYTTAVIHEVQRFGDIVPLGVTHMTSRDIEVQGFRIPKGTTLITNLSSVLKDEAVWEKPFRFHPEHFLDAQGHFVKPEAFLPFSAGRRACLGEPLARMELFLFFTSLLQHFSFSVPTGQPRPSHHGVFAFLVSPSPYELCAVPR
T3 sequence (P33261 whole entry): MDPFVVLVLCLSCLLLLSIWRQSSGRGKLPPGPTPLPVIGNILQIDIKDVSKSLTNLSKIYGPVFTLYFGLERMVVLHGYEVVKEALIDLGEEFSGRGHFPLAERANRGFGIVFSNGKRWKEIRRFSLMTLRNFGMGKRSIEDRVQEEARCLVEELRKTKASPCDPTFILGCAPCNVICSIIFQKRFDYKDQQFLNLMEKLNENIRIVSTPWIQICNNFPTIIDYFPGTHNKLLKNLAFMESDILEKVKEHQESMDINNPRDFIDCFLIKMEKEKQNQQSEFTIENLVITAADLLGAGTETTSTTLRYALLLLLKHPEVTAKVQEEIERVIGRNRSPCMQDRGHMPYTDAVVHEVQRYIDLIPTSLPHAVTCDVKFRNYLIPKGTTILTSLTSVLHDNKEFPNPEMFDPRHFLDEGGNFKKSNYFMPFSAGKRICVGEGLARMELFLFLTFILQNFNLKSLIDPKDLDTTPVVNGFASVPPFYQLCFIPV
T2 sequence (P11712 whole entry): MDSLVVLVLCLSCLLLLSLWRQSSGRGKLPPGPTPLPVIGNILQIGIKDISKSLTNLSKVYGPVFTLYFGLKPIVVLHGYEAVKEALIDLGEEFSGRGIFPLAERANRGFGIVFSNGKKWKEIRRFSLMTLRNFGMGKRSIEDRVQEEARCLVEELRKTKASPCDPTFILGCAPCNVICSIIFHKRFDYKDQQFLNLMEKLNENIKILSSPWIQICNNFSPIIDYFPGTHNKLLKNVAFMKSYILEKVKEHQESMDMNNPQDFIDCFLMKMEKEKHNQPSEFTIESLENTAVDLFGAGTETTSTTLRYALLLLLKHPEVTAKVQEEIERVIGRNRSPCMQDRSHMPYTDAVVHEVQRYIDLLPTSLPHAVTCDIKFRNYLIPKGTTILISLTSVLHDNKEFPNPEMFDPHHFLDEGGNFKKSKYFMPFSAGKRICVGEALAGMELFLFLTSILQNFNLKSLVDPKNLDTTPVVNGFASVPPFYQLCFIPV

Compound	IC50 [1] [nM]	IC50 [2] [nM]	IC50 [3] [nM]	IC50 [4] [nM]	IC50 [5] [nM]	IC50 [6] [nM]
CS(=O)(=O)N1CCCC1c1ccccc1-c1cncn1CCc1ccc(F)cc1 (single isomer, unassigned) [Compound 23b, (R or S)-1-(4-fluorophenethyl)-5-(2-(1-(methylsulfonyl)pyrrolidin-2-yl)phenyl)-1H-imidazole]	> 10000	> 10000	> 10000	> 10000	17	17.2
CC(C)(C)OC(=O)N1CCCC1c1ccccc1-c1cncn1C1CC1 (stereo not drawn) [Compound 37, tert-butyl 2-(2-(1-cyclopropyl-1H-imidazol-5-yl)phenyl) pyrrolidine-1-carboxylate]	> 10000	> 10000	5810	> 10000	17.8	35.2
CC(c1ccccc1-c1cncn1CCc1ccc(F)cc1)N(C)S(=O)(=O)c1cnc(N2CCN(C)CC2)s1 (stereo not drawn) [Compound 4, N-(1-(2-(1-(4-fluorophenethyl)-1H-imidazol-5-yl)phenyl)ethyl)-N-methyl-2-(4-methylpiperazin-1-yl)thiazole-5-sulfonamide]	> 10000	2200	6700	5110	12	9
O=S(=O)(c1cnc(N2CCN3C[C@H](O)C[C@H]3C2)s1)N1CCCC1c1ccccc1-c1cncn1CCc1ccc(F)cc1 (single isomer, unassigned) [Compound 22b, (7R,8aS)-2-(5-(((R or S)-2-(2-(1-(4-fluoro-phenethyl)-1H-imidazol-5-yl)phenyl)pyrrolidin-1-yl)sulfonyl)thiazol-2-yl) octahydro-pyrrolo[1,2-a] pyrazin-7-ol]	> 10000	1690	> 10000	4620	9.6	4.5
CC(=O)Nc1ncc(S(=O)(=O)NCc2ccc(-c3cncn3CCc3ccc(F)cc3)cn2)s1 [Compound 11, N-(5-(N-((5-(1-(4-fluorophenethyl)-1H-imidazol-5-yl)pyridin-2-yl)methyl)sulfamoyl)thiazol-2-yl)acetamide]	> 10000	7470	912	8390	197	> 100

Other lines, results leading:

IC50 [1] [nM]	IC50 [2] [nM]	IC50 [3] [nM]	IC50 [4] [nM]	IC50 [5] [nM]	IC50 [6] [nM]	Compound
> 10000	1230	155	1400	6.4	8	CC(=O)Nc1ncc(S(=O)(=O)N2Cc3cccc(-c4cncn4CCc4ccc(F)cc4)c3C2)s1 [Compound 15, N-(5-((4-(1-(4-fluorophenethyl)-1H-imidazol-5-yl)isoindolin-2-yl)sulfonyl)thiazol-2-yl)acetamide]
5750	4180	2070	≥ 10000	9.4	14.2	CC(C)NC(=O)N1CCCC1c1cccc(-c2cncn2CCc2ccc(F)cc2)c1 (stereo not drawn) [Compound 50, 2-(3-(1-(4-fluorophenethyl)-1H-imidazol-5-yl)phenyl)-N-isopropyl-pyrrolidine-1-carboxamide]
> 10000	> 10000	> 10000	1830	64.4	≥ 100	O=C(c1cccnc1)N1CCCC1c1ccccc1-c1cncn1CCc1ccc(F)cc1 (single isomer, unassigned) [Compound 42a, (R or S)-(2-(2-(1-(4-fluorophenethyl)-1H-imidazol-5-yl)phenyl)pyrrolidin-1-yl) (pyridin-3-yl) methanone]
> 10000	> 10000	> 10000	> 10000	6.1	6.2	CC(C)NC(=O)N1CCCC1c1ccccc1-c1cncn1CCc1ccc(F)cc1 (single isomer, unassigned) [Compound 46b, (R or S)-2-(2-(1-(4-fluorophenethyl)-1H-imidazol-5-yl)phenyl)-N-isopropyl-pyrrolidine-1-carboxamide]
8480	> 10000	> 10000	9200	192	> 100	CC(=O)Nc1ncc(S(=O)(=O)NC2(c3ccc(-c4cncn4[C@H](C)c4ccc(F)cc4)cc3)CC2)s1 [Compound 10, (R)—N-(5-(N-(1-(4-(1-(1-(4-fluorophenyl)ethyl)-1H-imidazol-5-yl)phenyl)cyclopropyl)sulfamoyl)thiazol-2-yl)acetamide]
3840	2200	2730	9040	7.6	4.3	CC(C)OC(=O)N1CCCC1c1ccccc1-c1cncn1CCc1ccc(F)cc1 (single isomer, unassigned) [Compound 39a, (R or S)-isopropyl 2-(2-(1-(4-fluorophenethyl)-1H-imidazol-5-yl)phenyl) pyrrolidine-1-carboxylate]
